Read-outs that look alike come from different tables or passages of the source.
Experiment: Oral bioavailability studies in marmosets (plasma concentration by bioassay)
Type: in vivo
Conditions: plasma
Method: The bioavailability in marmosets and dogs was determined by sampling the blood via the femoral vein at various time points after administering the renin inhibitor compounds of the invention in polyethylene glycol 400 at an intragastric dose of 10 mg/kg or at an intravenous dose of 1 mg/kg. Compound concentration in plasma was determined using the bioassay technique described below. The percent bioavailability was calculated by dividing the area under the concentration-vs.-time curve obtained from the intragastric experiment by the area under the concentration-vs.-time curve obtained from the intravenous experiment (adjusting for different doses), and multiplying the result by 100%. The bioavailibility of Example 1 compound is 27% in marmosets and 33% in dogs.
Renin inhibitor plasma concentrations were determined by a bioassay. The plasma samples were extracted with acetonitrile and the extract was evaporated to dryness under nitrogen. Residue was dissolved in 4% bovine serum albumin containing 0.9% NaCl and 5% EDTA. The dissolved residue (0.1 ml) was incubated with a reaction mixture containing human plasma (0.12 ml), 5% phenylmethysulfonylfluoride (1.2 ul), 10% neomycin (2.4 ul), 0.5 M TES buffer (pH 7.4, 24 ul), and 0.6 mU/ml recombinant human renin (1000 U/mg, 50 ul) at 37° C. for 90 minutes. The renin activity was determined by a standard angiotensin I radioimmunoassay (New England Nuclear Corp.). The amount of test compound in the plasma was determined by comparing the extent of inhibition of renin activity with that produced by a known amount of test compound added to plasma and analyzed above.

[1] = marmoset, iv, 1 mg/kg, marmoset, IV at 1 mg/kg, Test Run D table, read-out: Plasma Concentrations, Mean ± SE
[2] = marmoset, iv, 1 mg/kg, marmoset, IV at 1 mg/kg, Test Run C, individual animals, read-out: Plasma Concentrations
[3] = marmoset, iv, 1 mg/kg, marmoset, IV at 1 mg/kg, Test Run D, individual animals, read-out: Plasma Concentrations
[4] = marmoset, oral, 10 mg/kg, marmoset, IG at 10 mg/kg, Test Run B, read-out: Plasma Concentrations, Mean ± SE
[5] = marmoset, oral, 10 mg/kg, marmoset, IG at 10 mg/kg, Test Run A, individual animals, read-out: Plasma Concentrations
[6] = marmoset, oral, 10 mg/kg, marmoset, IG at 10 mg/kg, Test Run B, individual animals, read-out: Plasma Concentrations

concentration at 15 min (marmoset, iv, 1 mg/kg, marmoset, IV at 1 mg/kg, 15 min, Test Run D table, read-out: Plasma Concentrations, Mean ± SE): 7300 ± 2250 ng/mL | concentration at 30 min [1]: 4940 ± 1510 ng/mL | concentration at 1 h [1]: 2430 ± 326 ng/mL | concentration at 2 h [1]: 1240 ± 271 ng/mL | concentration at 3 h [1]: 578 ± 90 ng/mL | concentration at 4 h [1]: 691 ± 160 ng/mL | concentration at 6 h [1]: 176 ± 31 ng/mL | concentration at 2 min [2]: 13700 ng/mL | concentration at 30 min [2]: 5860 ng/mL | concentration at 1 h [2]: 3090 ng/mL | concentration at 3 h [2]: 486 ng/mL | concentration at 6 h [2]: 264 ng/mL | concentration at 2 min [3]: 4200 ng/mL | concentration at 30 min [3]: 1950 ng/mL | concentration at 2 h [3]: 554 ng/mL | concentration at 6 h [3]: 95 ng/mL | concentration at 30 min [4]: 4990 ± 1750 ng/mL | concentration at 1 h [4]: 3840 ± 1820 ng/mL | concentration at 2 h [4]: 3960 ± 2000 ng/mL | concentration at 3 h [4]: 4510 ± 939 ng/mL | concentration at 4 h [4]: 3360 ± 1730 ng/mL | concentration at 5 h (marmoset, oral, 10 mg/kg, marmoset, IG at 10 mg/kg, 5 hr, Test Run B, read-out: Plasma Concentrations, Mean ± SE): 2460 ± 1170 ng/mL | concentration at 6 h [4]: 3430 ± 457 ng/mL | concentration at 8 h [4]: 2610 ± 400 ng/mL | concentration at 30 min [5]: 9860 ng/mL | concentration at 1 h [5]: 1340 ng/mL | concentration at 2 h [5]: 1560 ng/mL | concentration at 3 h [5]: 7050 ng/mL | concentration at 6 h [5]: 4910 ng/mL | concentration at 8 h [5]: 3570 ng/mL | concentration at 30 min [6]: 1340 ng/mL | concentration at 6 h [6]: 2860 ng/mL | concentration at 8 h [6]: 1800 ng/mL | bioavailability (marmoset, oral, marmosets, IG 10 mg/kg vs IV 1 mg/kg): 27% | half-life (monkey, marmosets, read-out: terminal half-life (converted)): 1.5 h | Vd (monkey, marmosets, read-out: volume of distribution): 0.2 L/kg
SMILES: C#CC[C@H](NC(=O)C(CC(=O)N(C)CCN(C)C)Cc1ccccc1)C(=O)NC(CC1CCCCC1)[C@@H](O)C(O)CC(C)C (relative stereo) [Example 1, N1-[1R*-[[[1S,1R*-(cyclohexylmethyl)-2S*,3R*-dihydroxy-5-methylhexyl]amino]carbonyl]-3-butynyl]-N4-[2-(dimethylamino)ethyl]-N4-methyl-2S*-(phenylmethyl)butanediamide]
